From US7148328B2, “Compositions and methods for regulating autolytic processes in bacteria” (Trustees of Dartmouth College, priority 2001, dated 2006)

Tests used:
Assay type in all cases: cell-based, S. aureus
RAT mutant [1] = assay: Plating of antibiotic-treated cultures on agar plates without antibiotic selection (kill)
Experimental: (§1) RAT plays a role in regulating autolytic activity of S. aureus. […] To evaluate whether the cell lysis of the RAT mutant was additive to the effect of a subinhibitory concentration of penicillin, 200 ng/ml of penicillin was added to a growing culture of the RAT mutant at an OD650 nm of 0.5, corresponding to the mid-log phase. […] This finding is consistent with the additive effect of penicillin upon the lytic propensity of the RAT mutant late in the growth cycle. […] In comparison to the parental strain without antibiotics, the RAT mutant with subinhibitory concentrations of penicillin has a 3–4 log kill.

wild-type strain = assay: Subinhibitory antibiotic added to growing culture at mid-log phase, optical density followed; settings: 200 ng/ml penicillin (subinhibitory) added at OD650 nm of 0.5, mid-log phase, FIG. 1
RAT mutant [2] = assay: as above; settings: 200 ng/ml penicillin (subinhibitory) added at OD650 nm of 0.5, mid-log phase, FIG. 1
Experimental: as §1

Substance: penicillin
- more kill of RAT mutant than the parental strain (RAT mutant [1]; cultures with subinhibitory antibiotic plated on agar without antibiotic selection, compared with parental strain): 1–2 log
- kill of RAT mutant in comparison to the parental strain without antibiotics (RAT mutant [1]; subinhibitory concentrations of penicillin, compared with parental strain without antibiotics): 3–4 log
- change in optical density (growth) after addition of antibiotic (wild-type strain): no increase in optical density
- change in optical density (cell lysis) after addition of antibiotic (RAT mutant [2]): further reduction in optical density
